Key:
lambsquarters = assay: Test E preemergence; format: in vivo, Chenopodium album; settings: for Lambsquarters plant response rating: scale 0 to 100 (0 no effect, 100 complete control); for Plant response rating, Lambsquarters: scale 0 to 100, 0 no effect, 100 complete control
Outline: (§1)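 Test chemicals formulated in a non-phytotoxic solvent mixture containing a surfactant were applied preemergence to seeds in silt loam soil or postemergence to plants at the 1- to 4-leaf stage in potting mix. After 14 to 21 days in a greenhouse, injury was visually rated against controls on a 0-100 scale (0 = no effect, 100 = complete control).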

large (Lg) crabgrass = assay: Test E preemergence; format: in vivo, Digitaria sanguinalis; settings: for Crabgrass, Large plant response rating: scale 0 to 100 (0 no effect, 100 complete control); for Plant response rating, Crabgrass, Large: scale 0 to 100, 0 no effect, 100 complete control
Outline: as §1

goosegrass = assay: Test E preemergence; format: in vivo, Eleusine indica; settings: for Goosegrass plant response rating: scale 0 to 100 (0 no effect, 100 complete control); for Plant response rating, Goosegrass: scale 0 to 100, 0 no effect, 100 complete control
Outline: as §1

johnsongrass = assay: Test E preemergence; format: in vivo, Sorghum halepense; settings: for Johnsongrass plant response rating: scale 0 to 100 (0 no effect, 100 complete control); for Plant response rating, Johnsongrass: scale 0 to 100, 0 no effect, 100 complete control
Outline: as §1

nightshade = assay: Test E preemergence; format: in vivo, Solanum ptycanthum; settings: for Nightshade plant response rating: scale 0 to 100 (0 no effect, 100 complete control); for Plant response rating, Nightshade: scale 0 to 100, 0 no effect, 100 complete control
Outline: as §1

yellow nutsedge = assay: Test E preemergence; format: in vivo, Cyperus esculentus; settings: for Nutsedge, Yellow plant response rating: scale 0 to 100 (0 no effect, 100 complete control); for Plant response rating, Nutsedge, Yellow: scale 0 to 100, 0 no effect, 100 complete control
Outline: as §1

hairy beggarticks [1] = assay: Test E preemergence; format: in vivo, Bidens pilosa; settings: for Beggarticks plant response rating: scale 0 to 100 (0 no effect, 100 complete control); for Plant response rating, Beggarticks: scale 0 to 100, 0 no effect, 100 complete control
Outline: as §1

soybean = assay: Test E postemergence; format: in vivo, Glycine max
Outline: as §1

[2] = tested on: waterhemp_RES1 (ALS & Triazine resistant common waterhemp); assay: Test E postemergence; format: in vivo, Amaranthus rudis
Outline: as §1

[3] = tested on: waterhemp_RES2 (ALS & HPPD resistant common waterhemp); assay: Test E postemergence; format: in vivo, Amaranthus rudis
Outline: as §1

waterhemp = assay: Test E postemergence; format: in vivo, Amaranthus rudis
Outline: as §1

fall panicum = assay: Test E postemergence; format: in vivo, Panicum dichotomiflorum
Outline: as §1

sandbur = assay: Test E postemergence; format: in vivo, Cenchrus echinatus
Outline: as §1

arrowleaf sida = assay: Test E postemergence; format: in vivo, Sida rhombifolia
Outline: as §1

dayflower = assay: Test E postemergence; format: in vivo, Commelina virginica
Outline: as §1

hairy beggarticks [4] = assay: Test E postemergence; format: in vivo, Bidens pilosa
Outline: as §1

ducksalad = assay: Test C flooded paddy test; format: in vivo, Heteranthera limosa; settings: Flood, scale 0 to 100 (0 no effect, 100 complete control), 13 to 15 days
Outline: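 Visual injury ratings against untreated controls, taken 13 to 15 days after compound was added to paddy water standing 3 cm above the soil.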

[5] = Postemergence, 62 g ai/ha, scale 0 to 100
[6] = Postemergence, 125 g ai/ha, scale 0 to 100
[7] = Postemergence, 31 g ai/ha, scale 0 to 100
[8] = Postemergence, 250 g ai/ha, scale 0 to 100
[9] = postemergence, 16 g ai/ha, scale 0 to 100, 0 no effect, 100 complete control

N#Cc1cccc(Oc2ncc(Cl)cn2)c1-n1cc(Cl)cn1 [Compound 72]
Lambsquarters plant response rating (lambsquarters; 16 g ai/ha): 0
Lambsquarters plant response rating (lambsquarters; 31 g ai/ha): 90
Lambsquarters plant response rating (lambsquarters; 62 g ai/ha): 100
Plant response rating, Lambsquarters (lambsquarters; 125 g ai/ha): 100
Plant response rating, Lambsquarters (lambsquarters; 250 g ai/ha): 100
Crabgrass, Large plant response rating (large (Lg) crabgrass; 16 g ai/ha): 50
Crabgrass, Large plant response rating (large (Lg) crabgrass; 31 g ai/ha): 80
Crabgrass, Large plant response rating (large (Lg) crabgrass; 62 g ai/ha): 100
Plant response rating, Crabgrass, Large (large (Lg) crabgrass; 125 g ai/ha): 100
Plant response rating, Crabgrass, Large (large (Lg) crabgrass; 250 g ai/ha): 100
Goosegrass plant response rating (goosegrass; 16 g ai/ha): 0
Goosegrass plant response rating (goosegrass; 31 g ai/ha): 60
Goosegrass plant response rating (goosegrass; 62 g ai/ha): 80
Plant response rating, Goosegrass (goosegrass; 125 g ai/ha): 98
Plant response rating, Goosegrass (goosegrass; 250 g ai/ha): 100
Johnsongrass plant response rating (johnsongrass; 16 g ai/ha): 0
Johnsongrass plant response rating (johnsongrass; 31 g ai/ha): 0
Johnsongrass plant response rating (johnsongrass; 62 g ai/ha): 40
Plant response rating, Johnsongrass (johnsongrass; 125 g ai/ha): 95
Plant response rating, Johnsongrass (johnsongrass; 250 g ai/ha): 98
Nightshade plant response rating (nightshade; 16 g ai/ha): 0
Nightshade plant response rating (nightshade; 31 g ai/ha): 65
Nightshade plant response rating (nightshade; 62 g ai/ha): 100
Plant response rating, Nightshade (nightshade; 125 g ai/ha): 98
Plant response rating, Nightshade (nightshade; 250 g ai/ha): 100
Nutsedge, Yellow plant response rating (yellow nutsedge; 16 g ai/ha): 0
Nutsedge, Yellow plant response rating (yellow nutsedge; 31 g ai/ha): 0
Nutsedge, Yellow plant response rating (yellow nutsedge; 62 g ai/ha): 0
Plant response rating, Nutsedge, Yellow (yellow nutsedge; 125 g ai/ha): 25
Plant response rating, Nutsedge, Yellow (yellow nutsedge; 250 g ai/ha): 50
Beggarticks plant response rating (hairy beggarticks [1]; 16 g ai/ha, preemergence): 0
Beggarticks plant response rating (hairy beggarticks [1]; 31 g ai/ha, preemergence): 0
Plant response rating, Beggarticks (hairy beggarticks [1]; Preemergence, 62 g ai/ha): 5
Plant response rating, Beggarticks (hairy beggarticks [1]; preemergence, 125 g ai/ha): 5
Plant response rating, Beggarticks (hairy beggarticks [1]; preemergence, 250 g ai/ha): 30
Plant response rating, Soybean (soybean; [5]): 95
Plant response rating, Soybean (soybean; [6]): 95
Plant response rating, Waterhemp_RES1 [2, 5]: 75
Plant response rating, Waterhemp_RES1 [2, 6]: 95
Plant response rating, Waterhemp_RES2 [3, 5]: 80
Plant response rating, Waterhemp_RES2 [3, 6]: 90
Plant response rating, Waterhemp (waterhemp; [5]): 80
Plant response rating, Waterhemp (waterhemp; [6]): 98
Plant response rating, Panicum, Fall (fall panicum; [5]): 10
Plant response rating, Panicum, Fall (fall panicum; [6]): 10
Plant response rating, Sandbur (sandbur; [5]): 0
Plant response rating, Sandbur (sandbur; [6]): 0
Plant response rating, Arrowleaf Sida (arrowleaf sida; [5]): 50
Plant response rating, Arrowleaf Sida (arrowleaf sida; [6]): 75
Plant response rating, Dayflower, VA (dayflower; [5]): 50
Plant response rating, Dayflower, VA (dayflower; [6]): 60
Plant response rating, Beggarticks (hairy beggarticks [4]; [5]): 70
Plant response rating, Beggarticks (hairy beggarticks [4]; [6]): 80

N#Cc1cnn(-c2c(C#N)cccc2Oc2ncc(Cl)cn2)c1 [Compound 200]
Plant response rating, Ducksalad (ducksalad; 31 g ai/ha): 0
Plant response rating, Ducksalad (ducksalad; 62 g ai/ha): 0
Plant response rating, Ducksalad (ducksalad; 125 g ai/ha): 20
Plant response rating, Ducksalad (ducksalad; 250 g ai/ha): 80
Lambsquarters plant response rating (lambsquarters; 31 g ai/ha): 65
Lambsquarters plant response rating (lambsquarters; 62 g ai/ha): 80
Plant response rating, Lambsquarters (lambsquarters; 125 g ai/ha): 98
Plant response rating, Lambsquarters (lambsquarters; 250 g ai/ha): 100
Crabgrass, Large plant response rating (large (Lg) crabgrass; 16 g ai/ha): 5
Crabgrass, Large plant response rating (large (Lg) crabgrass; 31 g ai/ha): 35
Crabgrass, Large plant response rating (large (Lg) crabgrass; 62 g ai/ha): 65
Plant response rating, Crabgrass, Large (large (Lg) crabgrass; 125 g ai/ha): 80
Plant response rating, Crabgrass, Large (large (Lg) crabgrass; 250 g ai/ha): 100
Goosegrass plant response rating (goosegrass; 31 g ai/ha): 5
Goosegrass plant response rating (goosegrass; 62 g ai/ha): 60
Plant response rating, Goosegrass (goosegrass; 125 g ai/ha): 80
Plant response rating, Goosegrass (goosegrass; 250 g ai/ha): 90
Johnsongrass plant response rating (johnsongrass; 31 g ai/ha): 15
Johnsongrass plant response rating (johnsongrass; 62 g ai/ha): 25
Plant response rating, Johnsongrass (johnsongrass; 125 g ai/ha): 30
Plant response rating, Johnsongrass (johnsongrass; 250 g ai/ha): 75
Nightshade plant response rating (nightshade; 31 g ai/ha): 10
Nightshade plant response rating (nightshade; 62 g ai/ha): 85
Plant response rating, Nightshade (nightshade; 125 g ai/ha): 100
Plant response rating, Nightshade (nightshade; 250 g ai/ha): 100
Nutsedge, Yellow plant response rating (yellow nutsedge; 31 g ai/ha): 0
Nutsedge, Yellow plant response rating (yellow nutsedge; 62 g ai/ha): 0
Plant response rating, Nutsedge, Yellow (yellow nutsedge; 125 g ai/ha): 40
Plant response rating, Nutsedge, Yellow (yellow nutsedge; 250 g ai/ha): 70
Beggarticks plant response rating (hairy beggarticks [1]; 16 g ai/ha, preemergence): 0
Beggarticks plant response rating (hairy beggarticks [1]; 31 g ai/ha, preemergence): 10
Beggarticks plant response rating (hairy beggarticks [1]; 62 g ai/ha, preemergence): 35
Plant response rating, Beggarticks (hairy beggarticks [1]; preemergence, 125 g ai/ha): 75
Plant response rating, Beggarticks (hairy beggarticks [1]; preemergence, 250 g ai/ha): 95
Plant response rating, Soybean (soybean; [7]): 95
Plant response rating, Soybean (soybean; [5]): 95
Plant response rating, Soybean (soybean; [6]): 95
Plant response rating, Soybean (soybean; [8]): 98
Plant response rating, Soybean (soybean; [9]): 95
Plant response rating, Waterhemp_RES1 [2, 7]: 80
Plant response rating, Waterhemp_RES1 [2, 5]: 90
Plant response rating, Waterhemp_RES1 [2, 6]: 100
Plant response rating, Waterhemp_RES1 [2, 8]: 100
Plant response rating, Waterhemp_RES1 [2, 9]: 70
Plant response rating, Waterhemp_RES2 [3, 7]: 90
Plant response rating, Waterhemp_RES2 [3, 5]: 90
Plant response rating, Waterhemp_RES2 [3, 6]: 100
Plant response rating, Waterhemp_RES2 [3, 8]: 100
Plant response rating, Waterhemp_RES2 [3, 9]: 90
Plant response rating, Waterhemp (waterhemp; [7]): 90
Plant response rating, Waterhemp (waterhemp; [5]): 95
Plant response rating, Waterhemp (waterhemp; [6]): 95
Plant response rating, Waterhemp (waterhemp; [8]): 100
Plant response rating, Waterhemp (waterhemp; [9]): 80
Plant response rating, Panicum, Fall (fall panicum; [7]): 10
Plant response rating, Panicum, Fall (fall panicum; [5]): 20
Plant response rating, Panicum, Fall (fall panicum; [6]): 50
Plant response rating, Panicum, Fall (fall panicum; [8]): 50
Plant response rating, Panicum, Fall (fall panicum; [9]): 10
Plant response rating, Sandbur (sandbur; [7]): 0
Plant response rating, Sandbur (sandbur; [5]): 0
Plant response rating, Sandbur (sandbur; [6]): 0
Plant response rating, Sandbur (sandbur; [8]): 10
Plant response rating, Sandbur (sandbur; [9]): 0
Plant response rating, Arrowleaf Sida (arrowleaf sida; [7]): 80
Plant response rating, Arrowleaf Sida (arrowleaf sida; [5]): 80
Plant response rating, Arrowleaf Sida (arrowleaf sida; [6]): 90
Plant response rating, Arrowleaf Sida (arrowleaf sida; [8]): 98
Plant response rating, Arrowleaf Sida (arrowleaf sida; [9]): 60
Plant response rating, Dayflower, VA (dayflower; [7]): 25
Plant response rating, Dayflower, VA (dayflower; [5]): 40
Plant response rating, Dayflower, VA (dayflower; [6]): 60
Plant response rating, Dayflower, VA (dayflower; [8]): 70
Plant response rating, Dayflower, VA (dayflower; [9]): 15
Plant response rating, Beggarticks (hairy beggarticks [4]; [7]): 60
Plant response rating, Beggarticks (hairy beggarticks [4]; [5]): 70
Plant response rating, Beggarticks (hairy beggarticks [4]; [6]): 90
Plant response rating, Beggarticks (hairy beggarticks [4]; [8]): 95
Plant response rating, Beggarticks (hairy beggarticks [4]; [9]): 50
